Counter-ions that a name gives are not always drawn.
Target: S1P1/EDG1 (Homo sapiens, UniProt P21453)
Assay: S1P1 CRE-bla CHOK1 reporter assay (inhibition of Forskolin induced cAMP)
Type: cell-based
Conditions: agonist activity range, Table 2; read-out: S1P1 ACTIVITY
Source text: A mammalian expression plasmid containing S1P1/EDG1 cloned into pcDNA3.1 was purchased from Missouri S&T cDNA Resource Centre. The nucleotide and amino acid sequence of human S1P1/EDG1 are published in Hla and Maciag (J Biol Chem, 265(1990), 9308-9313). S1P1/pcDNA3.1 was transfected into the CRE-bla CHO K1 (Invitrogen) cell line, and stable single cell clones were selected using standard techniques. Expression of functional SIP1/EDG1 receptor was confirmed by cell surface FACS with a S1P1 antibody (R&D Systems, clone 218713) and S1P-mediated inhibition of Forskolin induced cAMP.
Cells were seeded into 384-well black wall/clear bottom plates at 10^4 cells/well/19.5 μl assay media (DMEM-phenol free, 0.5% charcoal/dextran stripped serum, 2 mM glutamine, 0.1 mM NEAA, 1 mM Na-Pyruvate, 25 mM Hepes) and incubated for 18 hrs at 37° C. in 5% CO2. Dose response curves (10-point) were generated in 10 mM Hepes, 0.1% Pluronic F127, in the presence of Forskolin. Cells were treated with 0.5 μl compound in the presence of 2 μM Forskolin for 4 hrs at 37° C. The FRET-based β-lactamase fluorescent substrate (LiveBLAzer™ FRET B/G Loading Kit CC4-AM; Invitrogen) was prepared according to manufacturer's directions, and incubated with cells for 2 hrs at room temperature. Plates were read at Ex:410/Em:458 and Ex:410/Em:522, and the response ratio determined. Data was analyzed by non-linear regression to determine the EC50 for inhibition of Forskolin induced cAMP.

Chain of S1P1/EDG1 (P21453 whole entry): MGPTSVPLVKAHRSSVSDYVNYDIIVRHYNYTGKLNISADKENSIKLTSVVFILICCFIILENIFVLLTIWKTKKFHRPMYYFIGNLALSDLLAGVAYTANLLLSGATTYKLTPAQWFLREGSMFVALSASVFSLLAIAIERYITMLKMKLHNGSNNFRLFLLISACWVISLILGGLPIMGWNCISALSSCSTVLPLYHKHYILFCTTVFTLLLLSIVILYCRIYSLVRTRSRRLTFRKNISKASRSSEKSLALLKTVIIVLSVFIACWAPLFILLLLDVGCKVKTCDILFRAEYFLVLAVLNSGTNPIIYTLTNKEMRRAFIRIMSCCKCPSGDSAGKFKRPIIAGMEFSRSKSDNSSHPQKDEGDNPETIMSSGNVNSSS

First: CC(C)Oc1ccc(-c2nnc(-c3cccc4c3CC[C@@H]4N)s2)cc1C#N [Compound 4, (S)-5-(5-(1-amino-2,3-dihydro-1H-inden-4-yl)-1,3,4-thiadiazol-2-yl)-2-isopropoxybenzonitrile hydrochloride]
Second: CC(=O)N[C@H]1CCc2c(-c3nnc(-c4ccc(OC(C)C)c(C#N)c4)s3)cccc21 [Compound 14, (S)-N-(4-(5-(3-cyano-4-isopropoxyphenyl)-1,3,4-thiadiazol-2-yl)-2,3-dihydro-1H-inden-1-yl)acetamide]
The EC50 of the first is higher: 0.5 to 5 nM for the first, 0.05 to 0.5 nM for the second.

CCOc1ccc(-c2nnc(-c3cccc4c3CC[C@@H]4N)s2)cc1OCC [Compound 6] and CC(C)Oc1ccc(-c2nnc(-c3cccc4c3CC[C@@H]4NCCO)s2)cc1C#N [Compound 18, (S)-5-(5-(1-((2-hydroxyethyl)amino)-2,3 dihydro-1H-inden-4-yl)-1,3,4-thiadiazol-2-yl)-2-isopropoxy-benzonitrile] fall in the same range of EC50: 0.5 to 5 nM for the first, 0.5 to 5 nM for the second.

Compared with CC(C)Oc1ccc(-c2nnc(-c3cccc4c3CC[C@@H]4NC(=O)CO)s2)cc1C#N [Compound 7, (S)-N-(4-(5-(3-cyano-4-isopropoxyphenyl)-1,3,4-thiadiazol-2-yl)-2,3-dihydro-1H-inden-1-yl)-2-hydroxyacetamide], CC(C)Oc1ccc(-c2nnc(-c3cccc4c3CC[C@H]4NC(=O)CO)s2)cc1C#N [Compound 8, (R)-N-(4-(5-(3-cyano-4-isopropoxyphenyl)-1,3,4-thiadiazol-2-yl)-2,3-dihydro-1H-inden-1-yl)-2-hydroxyacetamide] is higher in EC50: less than 0.05 nM for the first, 0.05 to 0.5 nM for the second. The first is the more potent here.

CC(C)Oc1ccc(-c2nnc(-c3cccc4c3CC[C@@H]4NC(=O)CN)s2)cc1C#N [Compound 9] and COCC(=O)N[C@@H]1CCc2c(-c3nnc(-c4ccc(OC(C)C)c(C#N)c4)s3)cccc21 [Compound 11] fall in the same range of EC50: 0.05 to 0.5 nM for the first, 0.05 to 0.5 nM for the second.

COCC(=O)N[C@H]1CCc2c(-c3nnc(-c4ccc(OC(C)C)c(C#N)c4)s3)cccc21 [Compound 12] and COC(=O)N[C@H]1CCc2c(-c3nnc(-c4ccc(OC(C)C)c(C#N)c4)s3)cccc21 [Compound 16, (S)-methyl(4-(5-(3-cyano-4-isopropoxyphenyl)-1,3,4-thiadiazol-2-yl)-2,3-dihydro-1H-inden-1-yl)carbamate] fall in the same range of EC50: 0.5 to 5 nM for the first, 0.5 to 5 nM for the second.

First: CC(C)Oc1ccc(-c2nnc(-c3cccc4c3CC[C@@H]4NC(=O)CN(C)C)s2)cc1C#N [Compound 13]
Second: CC(C)Oc1ccc(-c2nnc(-c3cccc4c3CC[C@H]4NC(=O)N(C)C)s2)cc1C#N [Compound 66]
The EC50 of the first is higher: 0.5 to 5 nM for the first, 0.05 to 0.5 nM for the second.

CC(=O)N[C@@H]1CCc2c(-c3nnc(-c4ccc(OC(C)C)c(C#N)c4)s3)cccc21 [Compound 15, (R)-N-(4-(5-(3-cyano-4-isopropoxyphenyl)-1,3,4-thiadiazol-2-yl)-2,3-dihydro-1H-inden-1-yl)acetamide] and COC(=O)N[C@H]1CCc2c(-c3nnc(-c4ccc(OC(C)C)c(C#N)c4)s3)cccc21 [Compound 68] fall in the same range of EC50: 0.05 to 0.5 nM for the first, 0.05 to 0.5 nM for the second.

Compared with COCCN[C@H]1CCc2c(-c3nnc(-c4ccc(OC(C)C)c(C#N)c4)s3)cccc21 [Compound 19], CC(C)Oc1ccc(-c2nnc(-c3cccc4c3CC[C@@H]4NCCS(C)(=O)=O)s2)cc1C#N [Compound 31, (S)-2-isopropoxy-5-(5-(1-((2-(methylsulfonyl)ethyl)amino)-2,3-dihydro-1H-inden-4-yl)-1,3,4-thiadiazol-2-yl)benzonitrile] is lower in EC50: 0.5 to 5 nM for the first, 0.05 to 0.5 nM for the second.

CC(C)Oc1ccc(-c2nnc(-c3cccc4c3CC[C@@H]4NCC(=O)N(C)C)s2)cc1C#N [Compound 21, (S)-2-((4-(5-(3-cyano-4-isopropoxyphenyl)-1,3,4-thiadiazol-2-yl)-2,3-dihydro-1H-inden-1-yl)amino)-N,N-dimethylacetamide hydrochloride] and CC(C)Oc1ccc(-c2nnc(-c3cccc4c3CC[C@@H]4NC(=O)N(C)C)s2)cc1C#N [Compound 67] fall in the same range of EC50: 0.5 to 5 nM for the first, 0.5 to 5 nM for the second.

CC(C)Oc1ccc(-c2nnc(-c3cccc4c3CC[C@@H]4NCC(=O)N3CCCC3)s2)cc1C#N [Compound 23] and CC(C)Oc1ccc(-c2nnc(-c3cccc4c3CC[C@@H]4NCC(=O)N3CCOCC3)s2)cc1C#N [Compound 24] fall in the same range of EC50: 0.5 to 5 nM for the first, 0.5 to 5 nM for the second.

CC(C)Oc1ccc(-c2nnc(-c3cccc4c3CC[C@@H]4NCC(=O)N3CCOCC3)s2)cc1C#N [Compound 25] and CC(C)Oc1ccc(-c2nnc(-c3cccc4c3CC[C@@H]4NCC(=O)N3CCCC3)s2)cc1C#N [Compound 39] fall in the same range of EC50: 0.05 to 0.5 nM for the first, 0.05 to 0.5 nM for the second.

CC(C)Oc1ccc(-c2nnc(-c3cccc4c3CC[C@@H]4NCC(=O)O)s2)cc1C#N [Compound 26, (S)-2-((4-(5-(3-cyano-4-isopropoxyphenyl)-1,3,4-thiadiazol-2-yl)-2,3-dihydro-1H-inden-1-yl)amino)acetic acid] and CC(C)Oc1ccc(-c2nnc(-c3cccc4c3CC[C@@H]4NS(=O)(=O)CC(=O)O)s2)cc1C#N [Compound 40, (S)-2-(N-(4-(5-(3-cyano-4-isopropoxyphenyl)-1,3,4-thiadiazol-2-yl)-2,3-dihydro-1H-inden-1-yl)sulfamoyl)acetic acid] fall in the same range of EC50: 0.05 to 0.5 nM for the first, 0.05 to 0.5 nM for the second.

CC(C)Oc1ccc(-c2nnc(-c3cccc4c3CC[C@@H]4NCc3ncc[nH]3)s2)cc1C#N [Compound 28, (S)-5-(5-(1-(((1H-imidazol-2-yl)methyl)amino)-2,3-dihydro-1H-inden-4-yl)-1,3,4-thiadiazol-2-yl)-2-isopropoxybenzonitrile] and CC(C)Oc1ccc(-c2nnc(-c3cccc4c3CC[C@@H]4NS(C)(=O)=O)s2)cc1C#N [Compound 33, (S)-N-(4-(5-(3-cyano-4-isopropoxyphenyl)-1,3,4-thiadiazol-2-yl)-2,3-dihydro-1H-inden-1-yl)methanesulfonamide] fall in the same range of EC50: 0.05 to 0.5 nM for the first, 0.05 to 0.5 nM for the second.

First: COCCN(CCOC)[C@H]1CCc2c(-c3nnc(-c4ccc(OC(C)C)c(C#N)c4)s3)cccc21 [Compound 30]
Second: COCCS(=O)(=O)N[C@H]1CCc2c(-c3nnc(-c4ccc(OC(C)C)c(C#N)c4)s3)cccc21 [Compound 35]
The EC50 of the first is higher: 0.5 to 5 nM for the first, 0.05 to 0.5 nM for the second. The second is the more potent here.

First: CC(C)Oc1ccc(-c2nnc(-c3cccc4c3CC[C@@H]4NS(=O)(=O)CC(=O)N(C)C)s2)cc1C#N [Compound 42, (S)-2-(N-(4-(5-(3-cyano-4-isopropoxyphenyl)-1,3,4-thiadiazol-2-yl)-2,3-dihydro-1H-inden-1-yl)sulfamoyl)-N,N-dimethylacetamide]
Second: CC(C)Oc1ccc(-c2nnc(-c3cccc4c3CC[C@@H]4NS(=O)(=O)CC(N)=O)s2)cc1C#N [Compound 44]
The EC50 of the first is higher: 0.05 to 0.5 nM for the first, less than 0.05 nM for the second.

First: CC(C)Oc1ccc(-c2nnc(-c3cccc4c3CC[C@@H]4NS(=O)(=O)CCO)s2)cc1C#N [Compound 45, (S)-N-(4-(5-(3-cyano-4-isopropoxyphenyl)-1,3,4-thiadiazol-2-yl)-2,3-dihydro-1H-inden-1-yl)-2-hydroxyethanesulfonamide]
Second: CC(C)Oc1ccc(-c2nnc(-c3cccc4c3CC[C@@H]4NC(=O)N3CC(O)C3)s2)cc1C#N [Compound 64]
The EC50 of the first is lower: 0.05 to 0.5 nM for the first, 0.5 to 5 nM for the second. The first is the more potent here.

CC(C)Oc1ccc(-c2nnc(-c3cccc4c3CC[C@@H]4NC(=O)N3CC(C(=O)O)C3)s2)cc1C#N [Compound 50] and CC(C)Oc1ccc(-c2nnc(-c3cccc4c3CC[C@@H]4NC(=O)N3CC(O)C3)s2)cc1C#N [Compound 65] fall in the same range of EC50: 0.05 to 0.5 nM for the first, 0.05 to 0.5 nM for the second.

First: CC(C)Oc1ccc(-c2nnc(-c3cccc4c3CC[C@H]4NC(=O)N3CCCC3)s2)cc1C#N [Compound 52]
Second: CC(C)Oc1ccc(-c2nnc(-c3cccc4c3CC[C@@H]4NC(=O)N3CCCC3)s2)cc1C#N [Compound 53]
The EC50 of the first is lower: 0.05 to 0.5 nM for the first, 0.5 to 5 nM for the second.

First: CC(C)Oc1ccc(-c2nnc(-c3cccc4c3CC[C@@H]4NC(=O)N3CC[C@H](O)C3)s2)cc1C#N [Compound 54]
Second: CC(C)Oc1ccc(-c2nnc(-c3cccc4c3CC[C@@H]4NC(=O)N3CCC[C@H](O)C3)s2)cc1C#N [Compound 60]
The EC50 of the first is lower: 0.05 to 0.5 nM for the first, 0.5 to 5 nM for the second.

First: CC(C)Oc1ccc(-c2nnc(-c3cccc4c3CC[C@@H]4NC(=O)N3CC[C@H](O)C3)s2)cc1C#N [Compound 55]
Second: CC(C)Oc1ccc(-c2nnc(-c3cccc4c3CC[C@@H]4NC(=O)N3CCC[C@H](O)C3)s2)cc1C#N [Compound 61]
The EC50 of the first is higher: 0.5 to 5 nM for the first, 0.05 to 0.5 nM for the second.

First: CC(C)Oc1ccc(-c2nnc(-c3cccc4c3CC[C@@H]4NC(=O)N3CCC(O)CC3)s2)cc1C#N [Compound 62]
Second: CC(C)Oc1ccc(-c2ncc(-c3cccc4c3CC[C@@H]4NC(=O)CO)s2)cc1C#N [Compound 73, (S)-N-(4-(2-(3-cyano-4-isopropoxyphenyl)thiazol-5-yl)-2,3-dihydro-1H-inden-1-yl)-2-hydroxyacetamide]
The EC50 of the first is higher: 0.5 to 5 nM for the first, 0.05 to 0.5 nM for the second.

First: CC(C)Oc1ccc(-c2ncc(-c3cccc4c3CC[C@@H]4O)s2)cc1C#N [Compound 70, (S)-5-(5-(1-hydroxy-2,3-dihydro-1H-inden-4-yl)thiazol-2-yl)-2-isopropoxybenzonitrile]
Second: COCC(=O)N[C@H]1CCc2c(-c3cnc(-c4ccc(OC(C)C)c(C#N)c4)s3)cccc21 [Compound 75]
The EC50 of the first is higher: 0.5 to 5 nM for the first, 0.05 to 0.5 nM for the second. The second is the more potent here.

In the case of COCC(=O)N[C@H]1CCc2c(-c3cnc(-c4ccc(OC(C)C)c(C#N)c4)s3)cccc21 [Compound 76, (S)-N-(4-(2-(3-cyano-4-isopropoxyphenyl)thiazol-5-yl)-2,3-dihydro-1H-inden-1-yl)-2-methoxyacetamide], the EC50 is reported as 0.5 to 5 nM.
